This passage reports viability results from ChEMBL document CHEMBL2311480, “Inhibitors of apoptosis in testicular germ cells: synthesis and biological evaluation of some novel IBTs bearing sulfonamide moiety” (2013).

The nature of the assay: Inhibition of malathion-induced apoptosis in goat testicular germ cells assessed as cell survival at 10 uM (malathion treated control = 41 +/- 6.24%). The class given is functional. The conditions noted are these: Capra hircus; read-out: Survival.
On to `CCOC(=O)CC(SP(=S)(OC)OC)C(=O)OCC` (stereo not given) [MALATHION], for which the viability at 10 µM is 41%.
To `NS(=O)(=O)c1ccc2c(c1)sc1nc(-c3cc4cc(Br)ccc4oc3=O)cn12` belongs 48%; to `NS(=O)(=O)c1ccc2c(c1)sc1nc(-c3cc4cc(Cl)ccc4oc3=O)cn12`, 61%.
To `NS(=O)(=O)c1ccc2c(c1)sc1nc(-c3cc4ccccc4oc3=O)cn12` belongs 46%; to `NS(=O)(=O)c1ccc2c(c1)sc1nc(-c3ccccc3)cn12`, 50%; to `NS(=O)(=O)c1ccc2c(c1)sc1nc(-c3ccc([N+](=O)[O-])cc3)cn12`, 39%.
The figure for `NS(=O)(=O)c1ccc2c(c1)sc1nc(-c3ccc(F)cc3)cn12` is 43%; for `NS(=O)(=O)c1ccc2c(c1)sc1nc(-c3ccc(Cl)cc3)cn12` it is 56%.
Take `NS(=O)(=O)c1ccc2c(c1)sc1nc(-c3ccc(Br)cc3)cn12`: the viability at 10 µM was found to be 52%.
For `Cc1ccc(-c2cn3c(n2)sc2cc(S(N)(=O)=O)ccc23)cc1`, the viability at 10 µM came out at 64%.
